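Tested at 5 concentrations; 48 h exposure; 96-well plates; endpoints linearly interpolated, else capped at highest concentration. GI50 is the concentration that inhibits growth by half. TGI is the concentration that stops growth completely.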
Assays:
Assay in all cases: growth of human tumour cells (NCI), 48 h
786-0 renal = test system: 786-0 renal
A498 renal = test system: A498 renal
A549 NSCLC = test system: A549 NSCLC
ACHN renal = test system: ACHN renal
BT-549 breast = test system: BT-549 breast
CAKI-1 renal = test system: CAKI-1 renal
CCRF-CEM leukemia = test system: CCRF-CEM leukemia
COLO 205 colon = test system: COLO 205 colon
DU-145 prostate = test system: DU-145 prostate
EKVX NSCLC = test system: EKVX NSCLC
HCC-2998 colon = test system: HCC-2998 colon
HCT-116 colon = test system: HCT-116 colon
HCT-15 colon = test system: HCT-15 colon
HOP-62 NSCLC = test system: HOP-62 NSCLC
HOP-92 NSCLC = test system: HOP-92 NSCLC
HS 578T breast = test system: HS 578T breast
HT29 colon = test system: HT29 colon
K-562 leukemia = test system: K-562 leukemia
KM12 colon = test system: KM12 colon
LOX IMVI melanoma = test system: LOX IMVI melanoma
MALME-3M melanoma = test system: MALME-3M melanoma
MCF7 breast = test system: MCF7 breast
MDA-MB-231 breast = test system: MDA-MB-231 breast
MDA-MB-435 = test system: MDA-MB-435
MOLT-4 leukemia = test system: MOLT-4 leukemia
NCI-H226 lung = test system: NCI-H226 lung
NCI-H23 lung = test system: NCI-H23 lung
NCI-H460 lung = test system: NCI-H460 lung
NCI/ADR-RES ovarian = test system: NCI/ADR-RES ovarian
OVCAR-3 ovarian = test system: OVCAR-3 ovarian
OVCAR-4 ovarian = test system: OVCAR-4 ovarian
OVCAR-5 ovarian = test system: OVCAR-5 ovarian
OVCAR-8 ovarian = test system: OVCAR-8 ovarian
PC-3 prostate = test system: PC-3 prostate
RPMI-8226 leukemia = test system: RPMI-8226 leukemia
RXF 393 renal = test system: RXF 393 renal
SF-268 CNS = test system: SF-268 CNS
SF-295 CNS = test system: SF-295 CNS
SF-539 CNS = test system: SF-539 CNS
SK-MEL-2 melanoma = test system: SK-MEL-2 melanoma
SK-MEL-28 melanoma = test system: SK-MEL-28 melanoma
SK-MEL-5 melanoma = test system: SK-MEL-5 melanoma
SK-OV-3 ovarian = test system: SK-OV-3 ovarian
SN12C renal = test system: SN12C renal
SNB-19 CNS = test system: SNB-19 CNS
SNB-75 CNS = test system: SNB-75 CNS
SR leukemia = test system: SR leukemia
SW-620 colon = test system: SW-620 colon
T-47D breast = test system: T-47D breast
TK-10 renal = test system: TK-10 renal
U251 CNS = test system: U251 CNS
UACC-257 melanoma = test system: UACC-257 melanoma
UACC-62 melanoma = test system: UACC-62 melanoma
UO-31 renal = test system: UO-31 renal
HL-60(TB) leukemia = test system: HL-60(TB) leukemia
IGROV1 ovarian = test system: IGROV1 ovarian
M14 melanoma = test system: M14 melanoma
NCI-H522 lung = test system: NCI-H522 lung

`O=C(COc1ccc(/C=C2\Oc3ccccc3C2=O)cc1)Nc1nccs1` was tested, and the GI50 (786-0 renal) was 54.9 µM, the TGI (786-0 renal) was > 100 µM and the GI50 (A498 renal) was 54.1 µM. The TGI (A498 renal) was > 100 µM, the GI50 (A549 NSCLC) was 63.9 µM and the TGI (A549 NSCLC) was > 100 µM. The GI50 (ACHN renal) was > 100 µM, the TGI (ACHN renal) was > 100 µM and the GI50 (BT-549 breast) was 18.5 µM. The TGI (BT-549 breast) was 96.9 µM, the GI50 (CAKI-1 renal) was 12.1 µM and the TGI (CAKI-1 renal) was > 100 µM. The GI50 (CCRF-CEM leukemia) was 1.52 µM, the TGI (CCRF-CEM leukemia) was 3.27 µM and the GI50 (COLO 205 colon) was > 100 µM. For the same molecule, the TGI (COLO 205 colon) was > 100 µM, the GI50 (DU-145 prostate) was 71 µM and the TGI (DU-145 prostate) was > 100 µM. For the same molecule, the GI50 (EKVX NSCLC) was 51.5 µM, the TGI (EKVX NSCLC) was > 100 µM and the GI50 (HCC-2998 colon) was > 100 µM. The TGI (HCC-2998 colon) was > 100 µM, the GI50 (HCT-116 colon) was 39.1 µM and the TGI (HCT-116 colon) was > 100 µM. The GI50 (HCT-15 colon) was > 100 µM, the TGI (HCT-15 colon) was > 100 µM and the GI50 (HOP-62 NSCLC) was 85.3 µM. For the same molecule, the TGI (HOP-62 NSCLC) was > 100 µM, the GI50 (HOP-92 NSCLC) was 1.53 µM and the TGI (HOP-92 NSCLC) was 4.85 µM. For the same molecule, the GI50 (HS 578T breast) was 20.7 µM, the TGI (HS 578T breast) was 80.5 µM and the GI50 (HT29 colon) was > 100 µM. The TGI (HT29 colon) was > 100 µM, the GI50 (K-562 leukemia) was 60.1 µM and the TGI (K-562 leukemia) was > 100 µM. The GI50 (KM12 colon) was 8.08 µM, the TGI (KM12 colon) was > 100 µM and the GI50 (LOX IMVI melanoma) was 0.371 µM. The TGI (LOX IMVI melanoma) was > 100 µM, the GI50 (MALME-3M melanoma) was > 100 µM and the TGI (MALME-3M melanoma) was > 100 µM. For the same molecule, the GI50 (MCF7 breast) was 43.2 µM, the TGI (MCF7 breast) was > 100 µM and the GI50 (MDA-MB-231 breast) was 33.4 µM. For the same molecule, the TGI (MDA-MB-231 breast) was > 100 µM, the GI50 (MDA-MB-435) was 8.47 µM and the TGI (MDA-MB-435) was > 100 µM. For the same molecule, the GI50 (MOLT-4 leukemia) was 3.31 µM, the TGI (MOLT-4 leukemia) was 19.1 µM and the GI50 (NCI-H226 lung) was 60.3 µM. For the same molecule, the TGI (NCI-H226 lung) was > 100 µM, the GI50 (NCI-H23 lung) was 49.8 µM and the TGI (NCI-H23 lung) was > 100 µM. The GI50 (NCI-H460 lung) was 88 µM, the TGI (NCI-H460 lung) was > 100 µM and the GI50 (NCI/ADR-RES ovarian) was 64.9 µM. The TGI (NCI/ADR-RES ovarian) was > 100 µM, the GI50 (OVCAR-3 ovarian) was 36.1 µM and the TGI (OVCAR-3 ovarian) was > 100 µM. The GI50 (OVCAR-4 ovarian) was 70.4 µM, the TGI (OVCAR-4 ovarian) was > 100 µM and the GI50 (OVCAR-5 ovarian) was > 100 µM. The TGI (OVCAR-5 ovarian) was > 100 µM, the GI50 (OVCAR-8 ovarian) was > 100 µM and the TGI (OVCAR-8 ovarian) was > 100 µM. The GI50 (PC-3 prostate) was 38.1 µM, the TGI (PC-3 prostate) was > 100 µM and the GI50 (RPMI-8226 leukemia) was 4.12 µM. The TGI (RPMI-8226 leukemia) was > 100 µM, the GI50 (RXF 393 renal) was 0.354 µM and the TGI (RXF 393 renal) was 15.1 µM. For the same molecule, the GI50 (SF-268 CNS) was 36.8 µM, the TGI (SF-268 CNS) was > 100 µM and the GI50 (SF-295 CNS) was 41.4 µM. For the same molecule, the TGI (SF-295 CNS) was > 100 µM, the GI50 (SF-539 CNS) was 32.5 µM and the TGI (SF-539 CNS) was > 100 µM. For the same molecule, the GI50 (SK-MEL-2 melanoma) was 39 µM, the TGI (SK-MEL-2 melanoma) was > 100 µM and the GI50 (SK-MEL-28 melanoma) was > 100 µM. The TGI (SK-MEL-28 melanoma) was > 100 µM, the GI50 (SK-MEL-5 melanoma) was 64.4 µM and the TGI (SK-MEL-5 melanoma) was > 100 µM. For the same molecule, the GI50 (SK-OV-3 ovarian) was > 100 µM, the TGI (SK-OV-3 ovarian) was > 100 µM and the GI50 (SN12C renal) was 76.9 µM. The TGI (SN12C renal) was > 100 µM, the GI50 (SNB-19 CNS) was > 100 µM and the TGI (SNB-19 CNS) was > 100 µM. For the same molecule, the GI50 (SNB-75 CNS) was 17.4 µM, the TGI (SNB-75 CNS) was 72.6 µM and the GI50 (SR leukemia) was 20.8 µM. For the same molecule, the TGI (SR leukemia) was 61 µM, the GI50 (SW-620 colon) was > 100 µM and the TGI (SW-620 colon) was > 100 µM. For the same molecule, the GI50 (T-47D breast) was 75.4 µM, the TGI (T-47D breast) was > 100 µM and the GI50 (TK-10 renal) was 85.1 µM. The TGI (TK-10 renal) was > 100 µM, the GI50 (U251 CNS) was 40.6 µM and the TGI (U251 CNS) was > 100 µM. The GI50 (UACC-257 melanoma) was 39.3 µM, the TGI (UACC-257 melanoma) was > 100 µM and the GI50 (UACC-62 melanoma) was > 100 µM. For the same molecule, the TGI (UACC-62 melanoma) was > 100 µM, the GI50 (UO-31 renal) was > 100 µM and the TGI (UO-31 renal) was > 100 µM.

For `Clc1cc(OCc2nn3c(Cc4ccccc4)nnc3s2)ccc1OCc1nn2c(Cc3ccccc3)nnc2s1`, the TGI (786-0 renal) was 56.8 µM, the TGI (A498 renal) was 79.6 µM and the TGI (A549 NSCLC) was > 100 µM. For the same molecule, the TGI (ACHN renal) was > 100 µM, the TGI (BT-549 breast) was > 100 µM and the TGI (CAKI-1 renal) was 99.6 µM. The TGI (COLO 205 colon) was > 100 µM, the TGI (DU-145 prostate) was > 100 µM and the TGI (EKVX NSCLC) was 66.2 µM. For the same molecule, the TGI (HCC-2998 colon) was > 100 µM, the TGI (HCT-116 colon) was > 100 µM and the TGI (HCT-15 colon) was > 100 µM. The TGI (HL-60(TB) leukemia) was > 100 µM, the TGI (HOP-62 NSCLC) was > 100 µM and the TGI (HOP-92 NSCLC) was 46.5 µM. The TGI (HS 578T breast) was > 100 µM, the TGI (HT29 colon) was > 100 µM and the TGI (IGROV1 ovarian) was > 100 µM. The TGI (K-562 leukemia) was > 100 µM, the TGI (KM12 colon) was > 100 µM and the TGI (LOX IMVI melanoma) was > 100 µM. For the same molecule, the TGI (M14 melanoma) was > 100 µM, the TGI (MALME-3M melanoma) was > 100 µM and the TGI (MCF7 breast) was > 100 µM. For the same molecule, the TGI (MDA-MB-231 breast) was 66.8 µM, the TGI (MDA-MB-435) was > 100 µM and the TGI (MOLT-4 leukemia) was > 100 µM. For the same molecule, the TGI (NCI-H226 lung) was > 100 µM, the TGI (NCI-H23 lung) was > 100 µM and the TGI (NCI-H460 lung) was > 100 µM. The TGI (NCI-H522 lung) was > 100 µM, the TGI (NCI/ADR-RES ovarian) was > 100 µM and the TGI (OVCAR-3 ovarian) was > 100 µM. The TGI (OVCAR-4 ovarian) was 59.3 µM, the TGI (OVCAR-5 ovarian) was > 100 µM and the TGI (OVCAR-8 ovarian) was 62.9 µM. The TGI (PC-3 prostate) was > 100 µM, the TGI (RPMI-8226 leukemia) was > 100 µM and the TGI (RXF 393 renal) was > 100 µM. The TGI (SF-268 CNS) was > 100 µM, the TGI (SF-295 CNS) was 63.9 µM and the TGI (SF-539 CNS) was > 100 µM. The TGI (SK-MEL-2 melanoma) was > 100 µM, the TGI (SK-MEL-28 melanoma) was > 100 µM and the TGI (SK-MEL-5 melanoma) was > 100 µM. The TGI (SK-OV-3 ovarian) was > 100 µM, the TGI (SN12C renal) was > 100 µM and the TGI (SNB-19 CNS) was 82.7 µM. For the same molecule, the TGI (SNB-75 CNS) was 39 µM, the TGI (SR leukemia) was > 100 µM and the TGI (SW-620 colon) was > 100 µM. It also gave a TGI (T-47D breast) of 79.4 µM, a TGI (TK-10 renal) of 72.1 µM and a TGI (U251 CNS) of 51.5 µM. For the same molecule, the TGI (UACC-257 melanoma) was > 100 µM, the TGI (UACC-62 melanoma) was > 100 µM and the TGI (UO-31 renal) was > 100 µM.
